Results taken from US6641811B1, “Use of angiotensin II inhibitors to prevent malignancies associated with immunosuppression” (Cornell Research Foundation, Inc., priority 2000, dated 2003).

Key:
Type in all cases: in vivo
[1] = system: human bladder cancer cells (T24); assay: Pulmonary metastases of T24 human bladder cancer cells injected via tail vein into SCID-beige mice; settings: for Number of metastases (mean ± SEM), T-24, with Enalapril: enalapril 10 mg/kg intraperitoneal twice a day, alone or with Cyclosporine 20 mg/kg or FK506 4 mg/kg every other day; for Incidence of tumors as compared to controls: summary of Table I (T24 and Renca) and Example 3 (T-24), in the absence of immunosuppressive agent
Protocol: (§1) In vivo tumor growth. Murine renal cell adenocarinoma cells (1×10^5 in Hanks balanced salt solution), murine Lewis lung carcinoma cells (1×10^5 cells), or human bladder cancer cells (1×10^5 cells) are injected via the tail vein into 6-wk old male SCID-beige mice. […] On day 19 or 23 post tumor inoculation, mice are killed and the number of pulmonary metastases is determined […] endotracheal insufflation of lungs with 15% India ink solution and bleaching the harvested lungs in Fekete's solution.
(§2) SCID-beige (immunodeficient) mice were inoculated with human bladder cancer cells (T24) or murine renal cancer cells (Renca). Tumor bearing mice were then treated with cyclosporin A or the angiotensin II receptor blocker, losartan or both.
(§3) Tumor cells (1×10^5 in HBSS) were injected via the tail vein into SCID-beige mice. […] The mice were sacrificed on day 19 (Renca) and day 23 (T24) and the number of metastases was counted as described (reference 7).

pulmonary metastasis = assay: Tumor progression / development of pulmonary metastasis in experimental animals (Example 2)
[2] = system: murine renal cancer cells (Renca); assay: Pulmonary metastases of Renca murine renal cancer cells injected via tail vein into SCID-beige mice; settings: 1×10^5 Renca cells via tail vein, sacrificed day 19, CsA 20 mg/kg SQ QOD, Losartan 10 mg/kg SQ BID, untreated 125 ± 22
Protocol: as §1, with “solution. The effect of angiotensin II inhibitors and anti-angiotensin II mAbs and the control IgG1 mAbs on CsA-induced increase in the number of pulmonary metastases is determined by intraperitoneal administration of 200 μg of mAbs, on a daily basis starting from day −1 to day 19 post tumor inoculation.” for “solution.”
as §2, §3

[3] = SCID beige mice, 100,000 T-24 cells by tail vein

SMILES	Number of metastases (mean ± SEM), T-24, with Enalapril [1, 3]	Incidence of tumors as compared to controls [1]	Effect on development of pulmonary metastasis (pulmonary metastasis)	Number of metastases (mean ± SEM), T-24, without Enalapril ([1]; SCID beige mice, 100,000 T-24 cells by tail vein, Cyclosporine 20 mg/kg or FK506 4 mg/kg every other day, no enalapril, untreated 38 ± 4)	Number of Pulmonary Metastases (Mean ± SEM), T24 ([1]; SCID-beige mice, 1×10^5 T24 cells via tail vein, sacrificed day 23, CsA 20 mg/kg SQ QOD, Losartan 10 mg/kg SQ BID, untreated 25 ± 7)	Number of Pulmonary Metastases (Mean ± SEM), Renca [2]
CCOC(=O)[C@H](CCc1ccccc1)N[C@@H](C)C(=O)N1CCC[C@H]1C(=O)O [Enalapril]	21 ± 3	reduces the incidence of tumors as compared to controls	prevented the development of pulmonary metastasis			
C=CC[C@@H]1/C=C(\C)C[C@H](C)C[C@H](OC)[C@H]2O[C@@](O)(C(=O)C(=O)N3CCCC[C@H]3C(=O)O[C@H](/C(C)=C/[C@@H]3CC[C@@H](O)[C@H](OC)C3)[C@H](C)[C@@H](O)CC1=O)[C@H](C)C[C@@H]2OC [FK506]	30 ± 2			72 ± 21		
CCCCc1nc(Cl)c(CO)n1Cc1ccc(-c2ccccc2-c2nn[nH]n2)cc1 [Losartan]		reduces the incidence of tumors as compared to controls			12 ± 3	67 ± 15
